Assay results reported in publication PMC6895912 (Cancers, 2019).
Entries after “also recorded” stand apart in the source; their conditions may differ.

How the values were obtained:
[1] = tested on: CWR-R1, CWR-R1 (10E), CWR-R1-MTX20nM cells; experiment: Colony formation (clonogenicity) assay; type: cell-based, human; settings: parental CWR-R1 and drug-resistant counterparts, 14 days
Text: (A) Comparative GI50 values of Gal, NGGAs, and enzalutamide (ENZ) in drug-naïve-/-resistant prostate cancer cells. (B) Gal and NGGAs induce G1 cell cycle arrest in LNCaP cells. (C) VNPP414 and VNPP433-3β deplete the cell cycle regulator, cyclin D1, and upregulate p21; “+” indicates specific treatments. (D) Gal cause dose-dependent depletion of cyclin D1. (E) Unlike ENZ, Gal and VNPP433-3β inhibit colony formation of drug-naïve/-resistant cells in vitro. 1000 cells/well (CWR-R1, CWR-R1 (10E), CWR-R1-MTX20nM), seeded in 6-well plates were treated with indicated concentrations of compounds for a period of 14 days. Media containing compounds were replaced every 3 days. Colonies were stained with 0.05% crystal violet. (F) Quantification of colony formation units (CFU) in drug-naive/resistant cells. Colony assays were repeated three times and colonies counted in four quadrants of the wells. Results are represented as averages with S.E.M. (* p < 0.05, ** p < 0.001). Note: the numbers in parentheses in Figure 2B,C,E are concentrations of the agents in µM.
0.1 × 10^3 cells per well were seeded in 6-well plates and allowed to attach overnight (16 h), cells were treated with compounds in regular media (RPMI with 10% FBS) at the indicated concentrations and replaced every 3rd day for 14 days or until visible colonies could be counted. Colonies were washed and stained with 0.05% crystal violet for 30 min. Colonies were scanned and quantified (colonies counted in four quadrants of each well) with ImageJ colony counter. Results are represented as the mean of triplicates.

CWR22Rv1 xenografts = experiment: Antitumor efficacy in castration-resistant CWR22Rv1 xenograft model; type: in vivo, male NOD SCID mice; settings: 25 mg/kg PO once daily, 16 days; listed as ENZ
Experimental: Following the in vitro studies and determination of the PK parameters, we then investigated the relative efficacy. Gal and the NGGAs in vivo using difficult-to-treat castration-resistant CWR22Rv1 xenografts. Given the enhanced IP and PO PK parameters of VNPP414 and VNPP433-3β over Gal, we decided to use lower doses of the new analogs compared to the previous Gal doses (200 mg/kg, IP/PO). Gal (200 mg/kg) served as positive control, while ENZ (25 mg/kg) administered PO was used as negative control. Male NOD SCID mice bearing CWR22Rv1 tumors were treated with vehicle, ENZ, Gal, VNPP414, and VNPP433-3β for 16 days as described in the Methods and Materials Section. […] In contrast, Gal and the NGGAs caused statistically significant tumor growth inhibition (TGI). […] It is notable that VNPP433-3β (at 7.5- and 15-fold lower molar doses) and VNPP414 (at 4-fold lower molar dose) are more efficacious than Gal. In general, no host toxicities were observed, as monitored by changes in animal body weight (Figure 7C).
Figure 7 Effects of Gal, NGGAs and ENZ in an in vivo castration-resistant prostate cancer model. (A) Mice bearing CWR22Rv1 xenografts (5 mice per group) were treated with vehicle, Gal (100 mg/kg/twice daily), VNPP414 (60 mg/kg, once daily), VNPP433-3β (15 or 30 mg/kg, once daily) and ENZ (25 mg.kg, once daily) 5 days per week for 16 days. Tumor volumes were measured twice a week and the tumors were collected. Tumor growth inhibition (TGI) values are indicated at the right of each growth curve, and the error bars are the SEM. Results are represented as means ± SEM. ^# p = ns (not significant vs. vehicle), ^$ p < 0.0272 vs. vehicle, * p < 0.0035 vs. vehicle, ** p < 0.0025 vs. vehicle and *** p < 0.0008 vs. vehicle. (B) Photographed tumors from each group. (C) Mean body weights of mice determined during the study. (D) Western blot analyses of tumor samples from each experimental group at day 16. […] It is left out because vehicle is a control, not a substance.
Male NOD SCID mice 5–6 weeks of age were obtained from University of Maryland School of Medicine Veterinary Resources (Baltimore, MD, USA. Mice were housed under complete aseptic conditions, fed autoclaved pellets and sterile water ad libitum. Following a week of acclimatization, approximately 5 × 10^6 CWR22Rv1 cells were inoculated one flank f mice. Tumor-bearing mice (tumor volume around ~100 mm^3) were randomized into 6 groups (5 mice in each group; compounds formulated in vehicle) and treated as follows: (i) vehicle control (40% β-cyclodextrin in saline, PO.), (ii) ENZ (25 mg/kg, PO, once daily), (iii) Gal (100mg/kg, PO, twice daily), (iv) VNPP414 (60 mg/kg, PO, once daily), (v) VNPP433-3β (15 mg/kg, PO, once daily), and (vi) VNPP433-3β (30 mg/kg, PO, once daily) for 5 days/week. Tumors were measured twice weekly with calipers and tumor volume was calculated by the formula: length × width^2 × 0.5 (mm^3). Animals were also weighed weekly and monitored for general health status and signs of possible toxicity due to treatments. Mice were sacrificed after the indicated periods of treatment and tumors excised. Tumors were divided and either flash frozen in liquid nitrogen or placed in 10% buffered formalin for western blot analysis.

CNC(=O)c1ccc(N2C(=S)N(c3ccc(C#N)c(C(F)(F)F)c3)C(=O)C2(C)C)cc1F [Enzalutamide, reference compound]
inhibition of colony formation [1]: ineffective at the concentrations tested | tumor volume versus vehicle-treated control (in words) (CWR22Rv1 xenografts): ineffective; also recorded: no statistically significant difference
